From publication PMC10053059, “Intraocular siRNA Delivery Mediated by Penetratin Derivative to Silence Orthotopic Retinoblastoma Gene” (Pharmaceutics, 2023)
Where no end group is shown, it is not given here.

What was measured:
[1] = test system: ARPE-19 cells; test: Intracellular co-localization, laser scanning confocal microscopy; format: cell-based, Human; settings: ARPE-19, 1 µg/mL siRNA, serum-free medium, 4 h
Protocol: ARPE-19 cells in the logarithmic growth phase were seeded in confocal dishes with a density of 5000 cells/well and incubated for 24 h with 5% CO2 at 37 °C. After administration with various polyplexes at a final concentration of 1 µg/mL siRNA, the cells were further cultured in serum-free medium for 4 h. Then, the cells were washed with 0.2% (m/v) heparin sodium solution three times, fixed with 4% (m/v) paraformaldehyde solution for 5 min, stained with 1 µg/mL 4’,6-diamidino-2-phenylindole (DAPI) solution for 10 min, and moisturized with 50% (v/v) glycerol.

[2] = test system: ARPE-19 cells; test: Cellular uptake pathway, dual-label flow cytometry with uptake inhibitors; format: cell-based, Human; settings: ARPE-19, inhibitors of Table S1, n = 3 (Figure S4)
Protocol: (§1) For quantitative analysis of cellular uptake of different formulations, ARPE-19 cells and WERI-Rb-1 cells in the logarithmic growth phase were inoculated in 12-well plates with 50,000 cells in each well (n = 3), as mentioned above. After being incubated with various formulations at a final concentration of 1 µg/mL siRNA, the cells were trypsinized with 0.25% trypsin-EDTA, collected in Eppendorf tubes, and centrifuged at 1000 rpm for 5 min. The precipitated cells were subsequently suspended, washed twice in 200 μL phosphate buffer saline (PBS), and analyzed using a flow cytometer (Beckman, Brea, CA, USA). The percentage of FAM-positive cells in total viable cells was defined as the uptake efficiency. The effects of various inhibitors on cellular uptake were also assessed.
(§2) Table S1. Cellular uptake inhibitors and their function mechanisms
(§3) Inhibitor Final Mechanism of action
(§4) Filipin 20 μg/mL Bind to cholesterol on the cell membrane and inhibit endocytosis
(§5) Mß-CD 300 μg/mL Deplete cholesterol and suppress endocytosis
(§6) Genistein 20 μg/mL Inhibit lipid raft/caveolae mediated endocytosis
(§7) Colchicine 20 μg/mL Inhibit pinocytosis by binding to tubulin to prevent microtubule
(§8) Dynasore 20 μg/mL Inhibit […] in clathrin -mediated endocytosis
(§9) Figure S1. Polyacrylamide gel electrophoresis of primary polyplexes siRNA/PA. The ratio is N/P
(§10) of 3rd generation PAMAM to siRNA. […]

[3] = test system: WERI-Rb-1 cells; test: as above; format: cell-based, Human; settings: WERI-Rb-1, inhibitors of Table S1, n = 3 (Figure S4)
Protocol: as §1, §2, §3, §4, §5, §6, §7, §8, §9, §10

[4] = test system: eyes, retina; settings: in vivo; cited from earlier work
From the text: We previously screened out penetratin from several of the most commonly reported cell-penetrating peptides based on the ex vivo permeability in excised cornea and in vivo ocular distribution. In a subsequent study, we optimized wild-type penetratin via amino acid mutation to further improve its permeability, and obtained a series of derivative peptides, which could be used as potential ocular absorption enhancers with low toxicity. […] Therefore, we chose 89WP to ...

Row | Sequence | internalization by cells (confocal observation) [1] | effect of uptake inhibitors on cellular uptake of single fluorescence-labeled material [2] | effect of uptake inhibitors on cellular uptake of single fluorescence-labeled material [3] | distribution in the eyes after topical instillation [4]
1 | RQIKIWFWWRRMKWKK [89WP-FAM, 5-carboxyfluorescein-labeled 89WP] | could be well internalized by the cells and distributed around the nuclei | did not affect cellular uptake | did not affect cellular uptake | 
2 | RQIKIWFWWRRMKWKK [89WP] |  |  |  | showed more distribution in the eyes, especially in the retina
